Experimental data: the CheMixHub viscosity set
± gives the uncertainty stated by the source.

Test: xn = mol fraction of the nth substance listed

`CCCC[N+]1=C2CCCCCN2CCC1.c1c[n-]cn1` + O showed a viscosity (293.15 K, 100 kPa, x1 = 0.0298) of 4.316 ± 0.19 mPa·s, a viscosity (293.15 K, 100 kPa, x1 = 0.0697) of 12.27 ± 0.34 mPa·s and a viscosity (293.15 K, 100 kPa, x1 = 0.0991) of 19.53 ± 0.55 mPa·s. The viscosity (293.15 K, 100 kPa, x1 = 0.2001) was 55.65 ± 1.3 mPa·s, the viscosity (293.15 K, 100 kPa, x1 = 0.3002) was 97.57 ± 2.9 mPa·s and the viscosity (293.15 K, 100 kPa, x1 = 0.439) was 133.7 ± 4.9 mPa·s. The viscosity (293.15 K, 100 kPa, x1 = 0.5972) was 136.6 ± 5.2 mPa·s, the viscosity (293.15 K, 100 kPa, x1 = 0.7501) was 127.6 ± 4.7 mPa·s and the viscosity (293.15 K, 100 kPa, x1 = 0.89) was 117.4 ± 4.1 mPa·s. The viscosity (298.15 K, 100 kPa, x1 = 0.0298) was 3.347 ± 0.15 mPa·s, the viscosity (298.15 K, 100 kPa, x1 = 0.0697) was 9.898 ± 0.28 mPa·s and the viscosity (298.15 K, 100 kPa, x1 = 0.0991) was 15.3 ± 0.41 mPa·s. It also gave a viscosity (298.15 K, 100 kPa, x1 = 0.2001) of 39.88 ± 0.93 mPa·s, a viscosity (298.15 K, 100 kPa, x1 = 0.3002) of 66.69 ± 1.6 mPa·s and a viscosity (298.15 K, 100 kPa, x1 = 0.439) of 88.91 ± 2.5 mPa·s. The viscosity (298.15 K, 100 kPa, x1 = 0.5972) was 91.45 ± 2.7 mPa·s, the viscosity (298.15 K, 100 kPa, x1 = 0.7501) was 86.9 ± 2.5 mPa·s and the viscosity (298.15 K, 100 kPa, x1 = 0.89) was 80.42 ± 2.2 mPa·s. The viscosity (303.15 K, 100 kPa, x1 = 0.0298) was 2.838 ± 0.12 mPa·s, the viscosity (303.15 K, 100 kPa, x1 = 0.0697) was 8.133 ± 0.22 mPa·s and the viscosity (303.15 K, 100 kPa, x1 = 0.0991) was 12.48 ± 0.32 mPa·s. The viscosity (303.15 K, 100 kPa, x1 = 0.2001) was 29.5 ± 0.68 mPa·s, the viscosity (303.15 K, 100 kPa, x1 = 0.3002) was 47.22 ± 1.1 mPa·s and the viscosity (303.15 K, 100 kPa, x1 = 0.439) was 61.57 ± 1.4 mPa·s. It also gave a viscosity (303.15 K, 100 kPa, x1 = 0.5972) of 63.37 ± 1.5 mPa·s, a viscosity (303.15 K, 100 kPa, x1 = 0.7501) of 60.13 ± 1.4 mPa·s and a viscosity (303.15 K, 100 kPa, x1 = 0.89) of 57.19 ± 1.3 mPa·s. For the same compound, the viscosity (308.15 K, 100 kPa, x1 = 0.0298) was 2.449 ± 0.1 mPa·s, the viscosity (308.15 K, 100 kPa, x1 = 0.0697) was 6.778 ± 0.18 mPa·s and the viscosity (308.15 K, 100 kPa, x1 = 0.0991) was 9.929 ± 0.25 mPa·s. It also gave a viscosity (308.15 K, 100 kPa, x1 = 0.2001) of 22.51 ± 0.51 mPa·s, a viscosity (308.15 K, 100 kPa, x1 = 0.3002) of 34.56 ± 0.78 mPa·s and a viscosity (308.15 K, 100 kPa, x1 = 0.439) of 44.11 ± 1 mPa·s. For the same compound, the viscosity (308.15 K, 100 kPa, x1 = 0.5972) was 45.74 ± 1.1 mPa·s, the viscosity (308.15 K, 100 kPa, x1 = 0.7501) was 43.8 ± 1 mPa·s and the viscosity (308.15 K, 100 kPa, x1 = 0.89) was 41.93 ± 1 mPa·s. It also gave a viscosity (313.15 K, 100 kPa, x1 = 0.0298) of 2.138 ± 0.087 mPa·s, a viscosity (313.15 K, 100 kPa, x1 = 0.0697) of 5.738 ± 0.15 mPa·s and a viscosity (313.15 K, 100 kPa, x1 = 0.0991) of 8.244 ± 0.2 mPa·s. For the same compound, the viscosity (313.15 K, 100 kPa, x1 = 0.2001) was 17.58 ± 0.4 mPa·s, the viscosity (313.15 K, 100 kPa, x1 = 0.3002) was 26.15 ± 0.6 mPa·s and the viscosity (313.15 K, 100 kPa, x1 = 0.439) was 32.54 ± 0.76 mPa·s. The viscosity (313.15 K, 100 kPa, x1 = 0.5972) was 33.55 ± 0.79 mPa·s, the viscosity (313.15 K, 100 kPa, x1 = 0.7501) was 32.34 ± 0.76 mPa·s and the viscosity (313.15 K, 100 kPa, x1 = 0.89) was 31.79 ± 0.76 mPa·s.
For `Nc1cccc2ccccc12` + Oc1ccccc1, the viscosity (303.15 K, 101.33 kPa, x1 = 0.4159) was 24.9 ± 0.25 mPa·s, the viscosity (303.15 K, 101.33 kPa, x1 = 0.4605) was 26.9 ± 0.27 mPa·s and the viscosity (303.15 K, 101.33 kPa, x1 = 0.7133) was 32.4 ± 0.32 mPa·s. For the same compound, the viscosity (323.15 K, 101.33 kPa, x1 = 0.4159) was 8.52 ± 0.085 mPa·s, the viscosity (323.15 K, 101.33 kPa, x1 = 0.4605) was 9 ± 0.09 mPa·s and the viscosity (323.15 K, 101.33 kPa, x1 = 0.7133) was 10.9 ± 0.11 mPa·s. It also gave a viscosity (323.15 K, 101.33 kPa, x1 = 0.8902) of 11.3 ± 0.11 mPa·s.
In the case of `CCOCCOCCOCCO` + ClC(Cl)=C(Cl)Cl, the viscosity (298.15 K, 101.33 kPa, x1 = 0.0072) is reported as 0.863 ± 0.009 mPa·s, the viscosity (298.15 K, 101.33 kPa, x1 = 0.0185) is reported as 0.892 ± 0.009 mPa·s and the viscosity (298.15 K, 101.33 kPa, x1 = 0.0339) is reported as 0.931 ± 0.009 mPa·s. The viscosity (298.15 K, 101.33 kPa, x1 = 0.0489) was 0.969 ± 0.01 mPa·s, the viscosity (298.15 K, 101.33 kPa, x1 = 0.0609) was 1.008 ± 0.01 mPa·s and the viscosity (298.15 K, 101.33 kPa, x1 = 0.0867) was 1.081 ± 0.011 mPa·s. The viscosity (298.15 K, 101.33 kPa, x1 = 0.1081) was 1.154 ± 0.011 mPa·s, the viscosity (298.15 K, 101.33 kPa, x1 = 0.1487) was 1.29 ± 0.013 mPa·s and the viscosity (298.15 K, 101.33 kPa, x1 = 0.1926) was 1.459 ± 0.014 mPa·s. For the same compound, the viscosity (298.15 K, 101.33 kPa, x1 = 0.2354) was 1.634 ± 0.016 mPa·s, the viscosity (298.15 K, 101.33 kPa, x1 = 0.2903) was 1.893 ± 0.019 mPa·s and the viscosity (298.15 K, 101.33 kPa, x1 = 0.3204) was 2.052 ± 0.02 mPa·s. For the same compound, the viscosity (298.15 K, 101.33 kPa, x1 = 0.3495) was 2.207 ± 0.022 mPa·s, the viscosity (298.15 K, 101.33 kPa, x1 = 0.3887) was 2.429 ± 0.024 mPa·s and the viscosity (298.15 K, 101.33 kPa, x1 = 0.4239) was 2.631 ± 0.026 mPa·s. It also gave a viscosity (298.15 K, 101.33 kPa, x1 = 0.4633) of 2.863 ± 0.029 mPa·s, a viscosity (298.15 K, 101.33 kPa, x1 = 0.5019) of 3.105 ± 0.032 mPa·s and a viscosity (298.15 K, 101.33 kPa, x1 = 0.5442) of 3.384 ± 0.035 mPa·s. It also gave a viscosity (298.15 K, 101.33 kPa, x1 = 0.5861) of 3.665 ± 0.038 mPa·s, a viscosity (298.15 K, 101.33 kPa, x1 = 0.6345) of 4.013 ± 0.042 mPa·s and a viscosity (298.15 K, 101.33 kPa, x1 = 0.6893) of 4.413 ± 0.047 mPa·s. The viscosity (298.15 K, 101.33 kPa, x1 = 0.7441) was 4.852 ± 0.052 mPa·s, the viscosity (298.15 K, 101.33 kPa, x1 = 0.8008) was 5.303 ± 0.058 mPa·s and the viscosity (298.15 K, 101.33 kPa, x1 = 0.8471) was 5.684 ± 0.062 mPa·s. It also gave a viscosity (298.15 K, 101.33 kPa, x1 = 0.9061) of 6.191 ± 0.068 mPa·s, a viscosity (298.15 K, 101.33 kPa, x1 = 0.9387) of 6.486 ± 0.072 mPa·s and a viscosity (298.15 K, 101.33 kPa, x1 = 0.9502) of 6.589 ± 0.073 mPa·s. It also gave a viscosity (298.15 K, 101.33 kPa, x1 = 0.9795) of 6.871 ± 0.077 mPa·s.
Work on `Nc1cccc2ccccc12` + CCCO yielded a viscosity (293.15 K, 101 kPa, x1 = 0.02914) of 2.371 ± 0.054 mPa·s, a viscosity (293.15 K, 101 kPa, x1 = 0.0566) of 2.516 ± 0.057 mPa·s and a viscosity (293.15 K, 101 kPa, x1 = 0.1072) of 2.846 ± 0.064 mPa·s. The viscosity (293.15 K, 101 kPa, x1 = 0.1525) was 3.22 ± 0.072 mPa·s, the viscosity (293.15 K, 101 kPa, x1 = 0.1936) was 3.628 ± 0.081 mPa·s and the viscosity (293.15 K, 101 kPa, x1 = 0.2308) was 4.054 ± 0.09 mPa·s. For the same compound, the viscosity (293.15 K, 101 kPa, x1 = 0.2648) was 4.498 ± 0.099 mPa·s, the viscosity (303.15 K, 101 kPa, x1 = 0.02914) was 1.836 ± 0.043 mPa·s and the viscosity (303.15 K, 101 kPa, x1 = 0.0566) was 1.937 ± 0.045 mPa·s. For the same compound, the viscosity (303.15 K, 101 kPa, x1 = 0.1072) was 2.154 ± 0.05 mPa·s, the viscosity (303.15 K, 101 kPa, x1 = 0.1525) was 2.392 ± 0.055 mPa·s and the viscosity (303.15 K, 101 kPa, x1 = 0.1936) was 2.662 ± 0.06 mPa·s. For the same compound, the viscosity (303.15 K, 101 kPa, x1 = 0.2308) was 2.931 ± 0.066 mPa·s, the viscosity (303.15 K, 101 kPa, x1 = 0.2648) was 3.222 ± 0.072 mPa·s and the viscosity (313.15 K, 101 kPa, x1 = 0.02914) was 1.445 ± 0.036 mPa·s. For the same compound, the viscosity (313.15 K, 101 kPa, x1 = 0.0566) was 1.518 ± 0.037 mPa·s, the viscosity (313.15 K, 101 kPa, x1 = 0.1072) was 1.674 ± 0.04 mPa·s and the viscosity (313.15 K, 101 kPa, x1 = 0.1525) was 1.839 ± 0.043 mPa·s. It also gave a viscosity (313.15 K, 101 kPa, x1 = 0.1936) of 2.02 ± 0.047 mPa·s, a viscosity (313.15 K, 101 kPa, x1 = 0.2308) of 2.211 ± 0.051 mPa·s and a viscosity (313.15 K, 101 kPa, x1 = 0.2648) of 2.403 ± 0.055 mPa·s. It also gave a viscosity (323.15 K, 101 kPa, x1 = 0.02914) of 1.153 ± 0.031 mPa·s, a viscosity (323.15 K, 101 kPa, x1 = 0.0566) of 1.21 ± 0.032 mPa·s and a viscosity (323.15 K, 101 kPa, x1 = 0.1072) of 1.324 ± 0.034 mPa·s. It also gave a viscosity (323.15 K, 101 kPa, x1 = 0.1525) of 1.443 ± 0.036 mPa·s, a viscosity (323.15 K, 101 kPa, x1 = 0.1936) of 1.57 ± 0.038 mPa·s and a viscosity (323.15 K, 101 kPa, x1 = 0.2308) of 1.7 ± 0.041 mPa·s. For the same compound, the viscosity (323.15 K, 101 kPa, x1 = 0.2648) was 1.838 ± 0.043 mPa·s.
